Earlier results in patent US20200338051A1, “NON-CLINICAL LIQUID FORMULATIONS OF PAN-JAK INHIBITOR” (Janssen Pharmaceutica NV, priority 2019, published 2020).
Like-named read-outs stand apart in the source and are kept apart here.

Experiments:
JAK1 = JAK1 (Homo sapiens, UniProt P23458); settings: in vitro
JAK2 = JAK2 (Homo sapiens, UniProt O60674); settings: in vitro
JAK3 = target: T1, JAK3 (Homo sapiens, UniProt P52333); settings: in vitro
T1 sequence (P52333 1-1124): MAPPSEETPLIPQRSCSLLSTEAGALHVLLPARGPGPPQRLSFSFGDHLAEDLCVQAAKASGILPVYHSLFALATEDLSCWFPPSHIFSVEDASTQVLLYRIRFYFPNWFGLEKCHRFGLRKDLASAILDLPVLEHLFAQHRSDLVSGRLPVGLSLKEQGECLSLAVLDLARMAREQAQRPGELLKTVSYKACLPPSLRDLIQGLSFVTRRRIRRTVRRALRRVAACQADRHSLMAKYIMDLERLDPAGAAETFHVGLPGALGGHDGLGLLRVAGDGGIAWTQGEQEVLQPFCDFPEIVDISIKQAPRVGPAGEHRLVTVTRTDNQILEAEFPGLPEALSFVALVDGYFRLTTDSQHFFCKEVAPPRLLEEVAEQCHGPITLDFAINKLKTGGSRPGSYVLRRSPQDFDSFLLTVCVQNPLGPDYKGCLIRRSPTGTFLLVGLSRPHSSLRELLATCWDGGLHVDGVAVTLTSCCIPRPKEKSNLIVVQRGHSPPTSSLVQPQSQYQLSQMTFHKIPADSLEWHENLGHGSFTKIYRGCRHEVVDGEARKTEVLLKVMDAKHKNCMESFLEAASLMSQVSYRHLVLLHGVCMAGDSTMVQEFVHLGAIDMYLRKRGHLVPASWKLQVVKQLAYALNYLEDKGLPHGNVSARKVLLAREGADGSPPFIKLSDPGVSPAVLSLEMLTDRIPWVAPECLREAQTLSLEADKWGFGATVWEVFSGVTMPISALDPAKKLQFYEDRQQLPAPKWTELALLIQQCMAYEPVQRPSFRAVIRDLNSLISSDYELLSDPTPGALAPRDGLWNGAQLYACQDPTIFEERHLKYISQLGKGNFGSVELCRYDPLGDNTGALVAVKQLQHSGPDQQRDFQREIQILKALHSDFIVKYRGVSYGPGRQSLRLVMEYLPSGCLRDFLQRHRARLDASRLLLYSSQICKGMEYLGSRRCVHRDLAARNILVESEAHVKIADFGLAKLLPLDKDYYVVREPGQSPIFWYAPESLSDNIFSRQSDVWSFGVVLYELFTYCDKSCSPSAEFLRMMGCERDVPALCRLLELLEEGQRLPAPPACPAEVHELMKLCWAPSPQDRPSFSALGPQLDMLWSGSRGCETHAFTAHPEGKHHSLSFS

TYK2 = TYK2 (Homo sapiens, UniProt P29597); settings: in vitro
Sequence of TYK2 (P29597 whole entry, species assumed): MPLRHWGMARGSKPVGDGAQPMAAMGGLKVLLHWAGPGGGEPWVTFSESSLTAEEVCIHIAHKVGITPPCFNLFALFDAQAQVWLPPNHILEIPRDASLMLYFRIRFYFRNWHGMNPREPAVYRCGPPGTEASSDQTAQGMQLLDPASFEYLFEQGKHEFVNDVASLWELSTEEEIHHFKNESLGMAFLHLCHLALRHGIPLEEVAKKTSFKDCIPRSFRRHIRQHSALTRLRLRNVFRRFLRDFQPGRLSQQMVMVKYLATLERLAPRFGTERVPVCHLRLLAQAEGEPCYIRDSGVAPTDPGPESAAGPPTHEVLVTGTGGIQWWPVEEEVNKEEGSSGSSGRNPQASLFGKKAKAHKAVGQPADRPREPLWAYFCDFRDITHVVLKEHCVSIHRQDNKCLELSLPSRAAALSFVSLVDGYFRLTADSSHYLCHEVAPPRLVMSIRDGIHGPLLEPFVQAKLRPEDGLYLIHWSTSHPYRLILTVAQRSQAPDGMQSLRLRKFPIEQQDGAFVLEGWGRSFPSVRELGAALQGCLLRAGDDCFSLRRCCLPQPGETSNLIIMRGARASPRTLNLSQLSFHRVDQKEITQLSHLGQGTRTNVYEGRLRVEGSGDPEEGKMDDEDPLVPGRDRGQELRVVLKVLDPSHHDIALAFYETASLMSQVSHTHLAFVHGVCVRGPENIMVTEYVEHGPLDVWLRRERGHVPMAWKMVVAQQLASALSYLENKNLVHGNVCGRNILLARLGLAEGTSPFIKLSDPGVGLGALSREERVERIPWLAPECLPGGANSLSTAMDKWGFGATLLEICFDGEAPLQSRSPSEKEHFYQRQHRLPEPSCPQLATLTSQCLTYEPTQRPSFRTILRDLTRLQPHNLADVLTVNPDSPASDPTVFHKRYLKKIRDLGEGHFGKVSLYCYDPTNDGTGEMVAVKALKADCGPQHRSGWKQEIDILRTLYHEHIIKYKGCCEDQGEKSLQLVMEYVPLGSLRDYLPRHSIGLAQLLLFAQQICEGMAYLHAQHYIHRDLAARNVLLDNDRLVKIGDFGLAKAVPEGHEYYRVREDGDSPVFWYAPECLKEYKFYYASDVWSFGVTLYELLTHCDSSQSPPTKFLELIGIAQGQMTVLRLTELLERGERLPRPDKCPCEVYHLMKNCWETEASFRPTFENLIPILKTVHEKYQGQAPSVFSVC

phosphorylation of STAT5 [1] = settings: PBMC, IL-2 stimulus
phosphorylation of STAT4 = settings: PBMC, INF-α stimulus
phosphorylation of STAT5 [2] = settings: PBMC, GM-CSF stimulus

Sequence of JAK2 (O60674 whole entry, species assumed): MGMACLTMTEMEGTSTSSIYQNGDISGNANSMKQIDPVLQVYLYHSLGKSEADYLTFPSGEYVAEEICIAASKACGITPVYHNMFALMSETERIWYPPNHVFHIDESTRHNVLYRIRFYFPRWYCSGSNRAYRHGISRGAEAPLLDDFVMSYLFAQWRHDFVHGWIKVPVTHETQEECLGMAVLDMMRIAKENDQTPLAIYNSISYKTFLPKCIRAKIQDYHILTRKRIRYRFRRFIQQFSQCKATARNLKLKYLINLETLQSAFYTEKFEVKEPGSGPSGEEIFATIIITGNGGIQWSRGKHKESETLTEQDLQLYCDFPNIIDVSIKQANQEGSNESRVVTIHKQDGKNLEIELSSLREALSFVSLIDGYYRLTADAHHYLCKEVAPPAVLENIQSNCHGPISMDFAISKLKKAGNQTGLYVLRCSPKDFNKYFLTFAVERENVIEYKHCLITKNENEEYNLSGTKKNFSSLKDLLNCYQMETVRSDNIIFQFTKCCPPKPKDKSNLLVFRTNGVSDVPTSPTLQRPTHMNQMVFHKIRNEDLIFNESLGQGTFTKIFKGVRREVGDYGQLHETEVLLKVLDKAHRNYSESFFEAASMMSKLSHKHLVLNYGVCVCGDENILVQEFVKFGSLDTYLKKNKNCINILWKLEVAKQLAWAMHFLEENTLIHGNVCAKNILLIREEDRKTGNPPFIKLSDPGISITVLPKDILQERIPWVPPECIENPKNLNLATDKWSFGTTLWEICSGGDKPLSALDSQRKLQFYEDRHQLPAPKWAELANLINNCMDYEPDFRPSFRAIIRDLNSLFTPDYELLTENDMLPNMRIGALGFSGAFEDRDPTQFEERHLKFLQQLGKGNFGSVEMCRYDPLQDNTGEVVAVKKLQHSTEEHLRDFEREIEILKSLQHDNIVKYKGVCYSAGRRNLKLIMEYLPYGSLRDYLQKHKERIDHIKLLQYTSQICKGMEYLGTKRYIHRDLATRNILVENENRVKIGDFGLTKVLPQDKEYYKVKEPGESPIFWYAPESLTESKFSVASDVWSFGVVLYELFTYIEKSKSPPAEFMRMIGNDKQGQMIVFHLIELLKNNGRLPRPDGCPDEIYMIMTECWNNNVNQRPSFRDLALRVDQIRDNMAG
Sequence of JAK1 (P23458 whole entry, species assumed): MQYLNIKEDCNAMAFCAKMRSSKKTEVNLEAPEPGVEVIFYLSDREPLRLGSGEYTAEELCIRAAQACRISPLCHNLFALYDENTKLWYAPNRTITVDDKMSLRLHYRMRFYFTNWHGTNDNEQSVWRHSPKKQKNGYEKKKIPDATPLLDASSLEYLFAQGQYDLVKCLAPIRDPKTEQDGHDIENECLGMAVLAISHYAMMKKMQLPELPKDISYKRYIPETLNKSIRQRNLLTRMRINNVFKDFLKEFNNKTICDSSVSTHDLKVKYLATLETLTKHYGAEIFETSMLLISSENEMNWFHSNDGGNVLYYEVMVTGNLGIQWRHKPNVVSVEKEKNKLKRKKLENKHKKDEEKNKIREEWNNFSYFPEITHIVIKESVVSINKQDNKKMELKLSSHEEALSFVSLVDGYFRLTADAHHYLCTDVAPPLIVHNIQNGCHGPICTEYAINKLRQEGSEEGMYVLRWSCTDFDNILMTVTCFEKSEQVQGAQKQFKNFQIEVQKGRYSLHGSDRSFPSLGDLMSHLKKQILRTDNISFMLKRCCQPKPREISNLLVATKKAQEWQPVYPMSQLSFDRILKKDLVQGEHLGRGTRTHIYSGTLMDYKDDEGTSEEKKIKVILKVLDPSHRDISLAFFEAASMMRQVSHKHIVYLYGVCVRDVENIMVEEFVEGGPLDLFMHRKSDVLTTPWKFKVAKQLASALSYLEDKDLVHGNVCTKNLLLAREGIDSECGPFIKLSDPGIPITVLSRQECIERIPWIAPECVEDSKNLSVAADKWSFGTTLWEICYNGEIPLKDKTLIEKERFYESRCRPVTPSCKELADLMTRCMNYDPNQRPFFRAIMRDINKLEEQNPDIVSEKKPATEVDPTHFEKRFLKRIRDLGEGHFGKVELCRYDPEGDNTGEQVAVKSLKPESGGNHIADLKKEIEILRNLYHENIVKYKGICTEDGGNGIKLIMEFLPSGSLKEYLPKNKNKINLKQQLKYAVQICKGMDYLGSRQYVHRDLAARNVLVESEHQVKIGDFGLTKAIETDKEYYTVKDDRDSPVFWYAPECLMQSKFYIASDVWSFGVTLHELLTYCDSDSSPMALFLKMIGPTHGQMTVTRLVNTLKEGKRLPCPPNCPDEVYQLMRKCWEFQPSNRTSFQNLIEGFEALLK

## CC(C)(O)CNC(=O)Cc1nc2cnc3[nH]ccc3c2n1[C@H]1CC[C@H](CC#N)CC1 [drug substance, 2-(1-((1r,4r)-4-(cyanomethyl)cyclohexyl)-1,6-dihydroimidazo[4,5-d]pyrrolo[2,3-b]pyridin-2-yl)-N-(2-hydroxy-2-methylpropyl)acetamide]
JAK1
  Enzymatic activity at JAK1: potent enzymatic activity
JAK2
  Enzymatic activity at JAK2: potent enzymatic activity
JAK3
  Enzymatic activity at JAK3: potent enzymatic activity
TYK2
  Enzymatic activity at TYK2: potent enzymatic activity
Phosphorylation of STAT5 [1]
  Inhibition of phosphorylation of STAT5: showed cellular activity
Phosphorylation of STAT4
  Inhibition of phosphorylation of STAT4: showed cellular activity
Phosphorylation of STAT5 [2]
  Inhibition of phosphorylation of STAT5: showed cellular activity
In vivo
  Systemic exposure: low systemic exposure
intra-colonic dosing
  Concentrations in the colon versus plasma: much higher than those in the plasma
Oral dosing
  Concentrations in the colon versus plasma: much higher than those in the plasma
